From US20220023289A1, “Application Of Pyrroloquinoline Quinone In Preparation Of Medicament Used For Preventing And Treating Acute Altitude Sickness And Acute Altitude Hypoxia Injury” (priority 2018, published 2022)

Key:
[1] = test system: rats exposed to acute altitude hypoxia; experiment: Serum homocysteine in rats exposed to acute altitude hypoxia; assay type: in vivo, Wistar rat
Description: (§1) Select healthy Wistar rats weight 160-200 g, half female and half male. After feeding for 3 days, these Wistar rats are randomly divided into ten groups according to their body weight, each group has 16±2 rats. The groups are divided as follows: five groups of the hypoxic exposure drug test group, respectively, are given 0.91 mg/kg, 1.83 mg/kg, 3.66 mg/kg, 7.31 mg/kg, and 14.63 mg/kg drugs. […] After continuous intragastric administration for 7 days, the animals in the hypoxic exposure group are simultaneously put into the decompression and hypoxia compound experimental chamber, the hatch is closed, and the pressure is reduced at a speed of 10 m/s. After being raised to an altitude of 6000 m and maintained for 8 hours, the speed in 10 m/s drops is reduced to normal altitude, open the hatch, and then take out the animal, collect blood samples (after standing for 1 hour, the supernatant is centrifuged and stored at −20° C.), and liver tissue samples. Detection indicator includes body weight, serum blood glucose, ATP, lactic acid, endothelin, nitric oxide, SOD, CO, MDA related to oxidative stress, and total protein, albumin, triglycerides, total cholesterol, high-density lipoprotein cholesterol, low-density lipoprotein cholesterol, glutamic pyruvic transaminase, total bilirubin, gluamic oxalacetic transaminase, serum urea nitrogen, creatinine, uric acid, lactate dehydrogenase, creatine kinase, α-hydroxybutyrate dehydrogenase; liver ATP, hepatic glycogen. Except that the formal oxygen control animal group is not put into the decompression and hypoxia compound experimental chamber, other experimental conditions and detection indicators are the same.
(§2) Measure blood glucose, total protein, albumin, triglycerides, total cholesterol, high-density lipoprotein cholesterol, low-density lipoprotein cholesterol, glutamic-pyruvic transaminase, total bilirubin, glutamic oxalacetic transaminase, serum urea nitrogen, creatinine, uric acid, lactate dehydrogenase, creatine kinase, α-hydroxybutyrate dehydrogenase, blood homocysteine by using an automatic blood biochemical analyzer.

[2] = test system: rats exposed to acute altitude hypoxia; experiment: Liver ATP and glycogen in rats exposed to acute altitude hypoxia; assay type: in vivo, Wistar rat
Description: Determination of adenosine triphosphate (ATP): Perform enzyme-linked immunosorbent assay by double-antibody one-step sandwich method. To the coated microwells pre-coated with rat adenosine triphosphate (ATP) capture antibody, add in sequence the specimens, standard, and HRP-labeled detection antibody, and then incubate and wash thoroughly. Use a substrate TMB for color development, TMB is converted into blue under the catalysis of peroxidase and converted into the final yellow color under the action of acid. The color intensity is positively correlated with the rat adenosine triphosphate (ATP) in the sample. […] Determination of liver glycogen (GC): Perform enzyme-linked immunosorbent assay by double-antibody one-step sandwich method. To the coated microwells pre-coated with rat liver glycogen (GC) capture antibody, add in sequence the specimens, standard, and HRP-labeled detection antibody, and then incubate and wash thoroughly. Use a substrate TMB for color development, TMB is converted into blue under the catalysis of peroxidase and converted into the final yellow color under the action of acid. The color intensity is positively correlated with the rat liver glycogen (GC) in the sample.

[3] = Body weight of male mice in exhaustive swimming experiment; settings: 0.16 g/kg
Description: Select healthy male Kunming mice weight 18-22 g. After feeding for 3 days, they are randomly divided into seven groups according to their body weight, each group has 10±1 mice. The groups are divided as follows: 5 groups of the drug test group, respectively, are given 1.32 mg/kg, 2.64 mg/kg, 5.28 mg/kg, 10.56 mg/kg, and 21.12 mg/kg drugs by gavage administration. […] After administration for 7 days, select an exhaustive swimming experiment under hypoxic conditions perform physical work ability evaluation; the observation index is an exhaustive swimming time. In the decompression and hypoxia compound laboratory chamber, decompression hypoxia is performed to an altitude of 6000 m, the swimming box is filled with water at a depth of 40 cm and the water temperature is 25° C. The animal is placed in the swimming box, and use a stopwatch to record a time from the start of swimming to exhaustion of the animal. Exhaustive swimming time is the time when an animal still cannot surface for 9 s after sinking.

[4] = test system: rats exposed to acute altitude hypoxia; experiment: Renal function in rats exposed to acute altitude hypoxia; assay type: in vivo, Wistar rat
Description: as §1, §2

[5] = female rats, hypoxia, 0.11 g/kg
[6] = female rats, normoxia, 0.11 g/kg
[7] = female rats, after hypoxia exposure and normoxia
[8] = female rats, hypoxia, 0.91 mg/kg
[9] = female rats, hypoxia, 1.83 mg/kg
[10] = female rats, hypoxia, 3.66 mg/kg
[11] = female rats, hypoxia, 7.31 mg/kg
[12] = female rats, hypoxia, 14.63 mg/kg
[13] = female rats, normoxia, 3.66 mg/kg
[14] = male rats, hypoxia, 14.63 mg/kg

CC(=O)Nc1nnc(S(N)(=O)=O)s1 [Acetazolamide, reference compound]
Serum homocysteine [1, 5]: 9.54 ± 0.98 µmol/L | effect on serum homocysteine ([1]; female rats, normoxia): no significant effects | Serum homocysteine [1, 6]: 9.33 ± 1.16 µmol/L | effect on serum homocysteine ([1]; hypoxia exposed female rats): no significant effects | effect on serum homocysteine ([1]; hypoxia exposed male rats): have been not found | Serum homocysteine ([1]; male rats, hypoxia, 0.11 g/kg): 11.13 ± 1.67 µmol/L | effect on liver ATP and glycogen content [2, 7]: no significant effects | liver Glycogen [2, 5]: 3.71 ± 0.27 ng/mL | liver ATP [2, 6]: 1.39 ± 0.54 µg/mL | liver Glycogen [2, 6]: 2.75 ± 1.13 ng/mL | effect on liver ATP and glycogen content ([2]; male rats): no significant effects | liver Glycogen ([2]; male rats, hypoxia, 0.11 g/kg): 2.14 ± 0.21 ng/mL | body weight male 1 day [3]: 21.28 ± 1.38 g | body weight male 7 days [3]: 23.05 ± 4.41 g | Creatinine [4, 5]: 18.78 ± 1.96 µmol/L | Uric acid [4, 5]: 77.80 ± 17.31 µmol/L | effect on serum urea nitrogen and creatinine values ([4]; female rats, normoxia): increasing | effect on serum uric acid level ([4]; female rats, normoxia): reducing | Creatinine [4, 6]: 19.67 ± 0.32 µmol/L | Uric acid [4, 6]: 82.00 ± 15.10 µmol/L | effect on serum urea nitrogen and creatinine value ([4]; hypoxia exposed female rats): increasing | effect on serum uric acid level ([4]; hypoxia exposed female rats): decreasing | effect on serum creatinine ([4]; hypoxia exposed male rats): no significant effect | effect on serum urea nitrogen content ([4]; hypoxia exposed male rats): increase | effect on serum uric acid level ([4]; hypoxia exposed male rats): can reduce | Creatinine ([4]; male rats, hypoxia, 0.11 g/kg): 25.01 ± 2.48 µmol/L | Uric acid ([4]; male rats, hypoxia, 0.11 g/kg): 81.86 ± 11.05 µmol/L

O=C(O)c1cc(C(=O)O)c2c(n1)C(=O)C(=O)c1cc(C(=O)O)[nH]c1-2 [PQQ, pyrroloquinoline quinone]
Serum homocysteine [1, 8]: 9.43 ± 1.4 µmol/L | Serum homocysteine [1, 9]: 10.66 ± 2.13 µmol/L | Serum homocysteine [1, 10]: 9.63 ± 1.97 µmol/L | Serum homocysteine [1, 11]: 8.6 ± 1.72 µmol/L | Serum homocysteine [1, 12]: 8.11 ± 1.37 µmol/L | effect on serum homocysteine ([1]; female rats, normoxia): no significant effects | Serum homocysteine [1, 13]: 9.76 ± 1.16 µmol/L | effect on serum homocysteine ([1]; hypoxia exposed female rats): no significant effects | effect on serum homocysteine ([1]; hypoxia exposed male rats): have been not found | Serum homocysteine ([1]; male rats, hypoxia, 0.91 mg/kg): 11.18 ± 2.09 µmol/L | Serum homocysteine ([1]; male rats, hypoxia, 1.83 mg/kg): 13.24 ± 3.87 µmol/L | Serum homocysteine ([1]; male rats, hypoxia, 3.66 mg/kg): 13.65 ± 3.24 µmol/L | Serum homocysteine ([1]; male rats, hypoxia, 7.31 mg/kg): 11.48 ± 2.36 µmol/L | Serum homocysteine [1, 14]: 12.78 ± 2.87 µmol/L | effect on liver ATP and glycogen content [2, 7]: no significant effects | liver Glycogen [2, 8]: 2.52 ± 0.36 ng/mL | liver ATP [2, 9]: 1.58 ± 0.27 µg/mL | liver Glycogen [2, 9]: 2.89 ± 0.57 ng/mL | liver ATP [2, 10]: 1.64 ± 0.37 µg/mL | liver Glycogen [2, 10]: 2.84 ± 0.67 ng/mL | liver Glycogen [2, 11]: 3.07 ± 0.19 ng/mL | liver Glycogen [2, 12]: 3.62 ± 0.38 ng/mL | liver ATP [2, 13]: 1.62 ± 0.13 µg/mL | liver Glycogen [2, 13]: 2.89 ± 0.28 ng/mL | effect on liver ATP and glycogen content ([2]; male rats): can increase | liver Glycogen ([2]; male rats, hypoxia, 0.91 mg/kg): 2.41 ± 0.41 ng/mL | liver Glycogen ([2]; male rats, hypoxia, 1.83 mg/kg): 2.23 ± 0.17 ng/mL | liver Glycogen ([2]; male rats, hypoxia, 3.66 mg/kg): 2.70 ± 0.84 ng/mL | liver Glycogen ([2]; male rats, hypoxia, 7.31 mg/kg): 2.86 ± 0.43 ng/mL | liver Glycogen [2, 14]: 2.55 ± 0.28 ng/mL | Creatinine [4, 8]: 14.67 ± 1.46 µmol/L | Serum urea nitrogen [4, 8]: 6.85 ± 0.90 mmol/L | Uric acid [4, 8]: 163.43 ± 12.51 µmol/L | Creatinine [4, 9]: 14.23 ± 1.90 µmol/L | Serum urea nitrogen [4, 9]: 5.98 ± 0.62 mmol/L | Uric acid [4, 9]: 152.71 ± 16.58 µmol/L | Creatinine [4, 10]: 12.71 ± 1.98 µmol/L | Serum urea nitrogen [4, 10]: 5.79 ± 0.62 mmol/L | Uric acid [4, 10]: 151.14 ± 18.48 µmol/L | Creatinine [4, 11]: 16.06 ± 1.19 µmol/L | Serum urea nitrogen [4, 11]: 6.00 ± 0.98 mmol/L | Uric acid [4, 11]: 152.43 ± 25.28 µmol/L | Creatinine [4, 12]: 13.51 ± 1.33 µmol/L | Serum urea nitrogen [4, 12]: 5.86 ± 0.54 mmol/L | Uric acid [4, 12]: 155.33 ± 21.56 µmol/L | effect on serum urea nitrogen, creatinine and uric acid ([4]; female rats, normoxia): no significant effects | Creatinine [4, 13]: 19.37 ± 4.32 µmol/L | Serum urea nitrogen [4, 13]: 6.23 ± 0.36 mmol/L | Uric acid [4, 13]: 193.57 ± 20.80 µmol/L | effect on serum urea nitrogen, creatinine and uric acid ([4]; hypoxia exposed female rats): no significant effects | effect on serum urea nitrogen and creatinine ([4]; hypoxia exposed male rats): no significant effect | effect on serum uric acid content ([4]; hypoxia exposed male rats, low-dose): reduce serum uric acid content | Creatinine ([4]; male rats, hypoxia, 0.91 mg/kg): 18.44 ± 1.46 µmol/L | Serum urea nitrogen ([4]; male rats, hypoxia, 0.91 mg/kg): 5.13 ± 0.75 mmol/L | Uric acid ([4]; male rats, hypoxia, 0.91 mg/kg): 134.25 ± 19.08 µmol/L | Creatinine ([4]; male rats, hypoxia, 1.83 mg/kg): 21.59 ± 3.31 µmol/L | Serum urea nitrogen ([4]; male rats, hypoxia, 1.83 mg/kg): 5.44 ± 1.13 mmol/L | Uric acid ([4]; male rats, hypoxia, 1.83 mg/kg): 142.60 ± 10.78 µmol/L | Creatinine ([4]; male rats, hypoxia, 3.66 mg/kg): 21.90 ± 2.88 µmol/L | Serum urea nitrogen ([4]; male rats, hypoxia, 3.66 mg/kg): 6.37 ± 1.64 mmol/L | Uric acid ([4]; male rats, hypoxia, 3.66 mg/kg): 171.38 ± 14.92 µmol/L | Creatinine ([4]; male rats, hypoxia, 7.31 mg/kg): 22.40 ± 1.53 µmol/L | Serum urea nitrogen ([4]; male rats, hypoxia, 7.31 mg/kg): 5.91 ± 0.86 mmol/L | Uric acid ([4]; male rats, hypoxia, 7.31 mg/kg): 202.16 ± 17.13 µmol/L | Creatinine [4, 14]: 22.49 ± 3.00 µmol/L | Serum urea nitrogen [4, 14]: 6.23 ± 1.36 mmol/L | Uric acid [4, 14]: 182.22 ± 15.80 µmol/L
